From patent EP2356213B1, “STEM CELL AGGREGATE SUSPENSION COMPOSITIONS AND METHODS FOR DIFFERENTIATION THEREOF” (VIACYTE, INC., priority 2008, dated 2010)
“Also recorded” adds a separate entry of the source.

Columns and labels:
[1] = molecular target: T1, ErbB2 (Homo sapiens, UniProt P04626); assay: Western blotting of ErbB2 autophosphorylation in starved/heregulin pulsed hESCs; assay type: cell-based; conditions: starved/heregulin (HRG) pulsed hESCs in DC-HAIF
T1 construct: endogenous in cells; host or cells: human embryonic stem cells (hESCs) growing in DC-HAIF
Description: (§1) Colony and cell-counting assays confirmed that LongR3-IGFl and HRG played the major roles in self-renewal and proliferation in the context of one of the embodiments of the present invention (Fig. 6D, 6E). Phosphorylation of IGF1R, IR, […], ErbB2, and ErbB3 was also observed in both steady-state DC-HAIF cultures, and in starved cultures that were pulsed with DC-HAIF (Fig. 6F).

[2] = system: BG02 hESCs; assay: Proliferation of hESCs in conditioned medium with AG825; assay type: cell-based, human
Description: as §1

[3] = system: R1 mouse ES cells; assay: Effect of ErbB1/ErbB2 inhibitors on proliferation of mouse ES cells (alkaline phosphatase staining, 8 days); assay type: cell-based
Method: AG1478 and AG879 were used to examine the role of HRG/ErbB signaling in mouse ES cells. R1 mouse ES cells were maintained in standard conditions in DMEM, 10% FBS, 10% KSR, 0.5 U/mL penicillin, 0.5 U/mL streptomycin, 1xNEAA, 1 mM sodium pyruvate, 1000 U/mL LIF (ESGRO), 0.1 mM β-ME, and were passaged with 0.5% trypsin/EDTA. 2x10^5 cells/well were plated in 6 well trays on MATRIGEL™ diluted at 1:1000. The day after plating, DMSO (carrier control), 1-50 µM AG1478, or 1-50 µM AG879 was added with fresh medium. The cells were cultured an additional 8 days, with daily media changes. The cultures were then fixed and stained for alkaline phosphatase activity.

[4] = system: BGOlv cells; assay: Effect of ErbB tyrosine kinase inhibitors on proliferation of BG01v hESCs (alkaline phosphatase staining after 5 days); assay type: cell-based
Method: The EGF domain family of ligands bind to the ErbB family of receptor tyrosine kinases. To examine the effect of known inhibitors of ErbB tyrosine kinases in hESCs, BGOlv cells were plated in 6 well trays on MATRIGEL™ diluted at 1:1000, in defined culture medium (DC) containing 100 ng/mL LongR3-IGFl, 8 ng/mL FGF2 and 1 ng/mL Activin A. On the next day, DMSO (carrier control), 50 nM-20 µM AG1478 (an ErbB1 inhibitor), or 100 nM-20 µM AG879 (an ErbB2 inhibitor) was added with fresh medium. The cells were cultured for an additional 5 days, with daily media changes. The cultures were then fixed and stained for alkaline phosphatase activity.

[5] = system: ES cells; assay: Suspension cultures in various media, cell counting; assay type: cell-based; conditions: added to HAIF, HAI, HI
Method: To determine if suspensions of ES cells could be cultured in the absence of FGF2 and/or Activin A, ES cells were cultured in a variety of media, with and without these factors. […] In addition, the cells in each media were successfully passaged with no morphological signs of differentiation. Table 3 - Suspension Cultures in Various Media

[6] = system: BG02 cells; assay: Suspension cultures with and without an apoptosis inhibitor, cell counting; assay type: cell-based, human
Method: To attenuate the loss of cells after initial passaging in suspension, an inhibitor of apoptosis was added to the medium. Cells were passaged as in Example 12, except that Y-27632, an inhibitor of p160-Rho-associated coiled-coil kinase (ROCK), was added to the medium.
Suspension aggregates of BG02 cells were formed by seeding 2x10^6 single cells in 6-well dishes in 3 mL DC-HAIF medium, at 100 rpm on a rotating platform in an incubator (Table 2, Experiment A). 10 µM Y27632 ROCK inhibitor was added to test wells for the course of the experiment and the cultures observed daily and counted after 24 hours (day 1) and after 4 or 5 days. […] Cell counting confirmed that more viable cells were present in the presence of inhibitor (Table 2, Experiment A). This difference in cell number persisted throughout the course of the culture period, with more cells also observed on day 4, compared to cultures without inhibitor. As with previous suspension culture experiments, cells exposed to Y27632 could also be serially passaged, and maintained in an undifferentiated state (not shown).
As previous experiments had shown that growth rates of cells in suspension and adherent culture were similar after the initial 24 hours, an experiment was performed where Y27632 was removed after this initial period (Table 2, Experiment B). […] 1.4x10^7 (+Y27632) and 1.8x107 (+/-Y27632) viable cells were generated when inhibitor was present compared to 3.9x10^6 cells in untreated cultures. This analysis confirmed that Y27632 had the largest impact during the first 24 hours of suspension hESC culture.
Because of the enhanced survival and aggregation observed in the presence of Y27632, an experiment was performed to examine if it was possible to reduce the number of cells used to seed suspension cultures (Table 2, Experiment C). […] To determine if addition of a ROCK inhibitor would allow cell seeding at lower densities, a range of cell concentrations (from about 2x10^6 total cells down to about 1x10^5 total cells was used to seed suspension cultures in 6-well trays cells in 3 mL DC-HAIF. 10 µM Y27632 was added to all conditions, and the cell number and viability assessed on day 5. Successful aggregation and expansion was observed even at low seeding densities. An approximately 13 fold expansion of viable cells was observed even cultures that were only seeded with 1x10^5 cells. Inhibition of ROCK with Y27632 therefore facilitated initial survival of hESCs at much lower densities in this suspension system. Table 2 - Suspension Cultures with and without an Apoptosis Inhibitor

[7] = system: pancreatic epithelial and endocrine type cells; assay: Re-aggregation of dissociated stage 4 or stage 5 adherent cultures with ROCK inhibitor; assay type: cell-based, human; conditions: 10µM
Method: Adherent cultures at either stage 4 (about d10 - d14 into the differentiation protocol; pancreatic epithelial and endocrine type cells) or stage 5 (about day 16 to day 30 into the differentiation protocol; endocrine precursor and endocrine cells) were similarly dissociated into single cells, counted, and pelleted. The cell pellet was then resuspended in DMEM CMRL supplemented Pen/Strep and Glutamax, and IX B27-supplement and DNase (50-100 µg/ml, Roche Diagnostics) and 0-2% FBS. […] Cells were equally distributed into 6-well plates and placed on a rotating platform at 100 rpm to 140 rpm form 4 hours to overnight substantially as described above.

[8] = Expt. A, seeding 2x10^6, p0, day 1
[9] = Expt. A, seeding 2x10^6, p0, day 4
[10] = Expt. A, seeding 2x10^6, p1, day 4
[11] = Expt. B, seeding 2x10^6, p0, day 1
[12] = Expt. B, seeding 2x10^6, p0, day 5, +/-Y27632 = inhibitor removed after 24 hours, listed as +/-Y27632
[13] = Expt. B, seeding 2x10^6, p0, day 5, +/-Y27632 = inhibitor removed after 24 hours, listed as +Y27632
[14] = Expt. C, seeding 1x10^6, p0, day 1
[15] = Expt. C, seeding 1x10^6, p0, day 5
[16] = Expt. C, seeding 2x10^6, p0, day 1
[17] = Expt. C, seeding 2x10^6, p0, day 5
[18] = Expt. C, seeding 2.5x10^5, p0, day 1
[19] = Expt. C, seeding 2.5x10^5, p0, day 5
[20] = Expt. C, seeding 5x10^5, p0, day 1
[21] = Expt. C, seeding 5x10^5, p0, day 5
[22] = Expt. C, seeding 10^5, p0, day 1
[23] = Expt. C, seeding 10^5, p0, day 5

T1 sequence (P04626 23-1255): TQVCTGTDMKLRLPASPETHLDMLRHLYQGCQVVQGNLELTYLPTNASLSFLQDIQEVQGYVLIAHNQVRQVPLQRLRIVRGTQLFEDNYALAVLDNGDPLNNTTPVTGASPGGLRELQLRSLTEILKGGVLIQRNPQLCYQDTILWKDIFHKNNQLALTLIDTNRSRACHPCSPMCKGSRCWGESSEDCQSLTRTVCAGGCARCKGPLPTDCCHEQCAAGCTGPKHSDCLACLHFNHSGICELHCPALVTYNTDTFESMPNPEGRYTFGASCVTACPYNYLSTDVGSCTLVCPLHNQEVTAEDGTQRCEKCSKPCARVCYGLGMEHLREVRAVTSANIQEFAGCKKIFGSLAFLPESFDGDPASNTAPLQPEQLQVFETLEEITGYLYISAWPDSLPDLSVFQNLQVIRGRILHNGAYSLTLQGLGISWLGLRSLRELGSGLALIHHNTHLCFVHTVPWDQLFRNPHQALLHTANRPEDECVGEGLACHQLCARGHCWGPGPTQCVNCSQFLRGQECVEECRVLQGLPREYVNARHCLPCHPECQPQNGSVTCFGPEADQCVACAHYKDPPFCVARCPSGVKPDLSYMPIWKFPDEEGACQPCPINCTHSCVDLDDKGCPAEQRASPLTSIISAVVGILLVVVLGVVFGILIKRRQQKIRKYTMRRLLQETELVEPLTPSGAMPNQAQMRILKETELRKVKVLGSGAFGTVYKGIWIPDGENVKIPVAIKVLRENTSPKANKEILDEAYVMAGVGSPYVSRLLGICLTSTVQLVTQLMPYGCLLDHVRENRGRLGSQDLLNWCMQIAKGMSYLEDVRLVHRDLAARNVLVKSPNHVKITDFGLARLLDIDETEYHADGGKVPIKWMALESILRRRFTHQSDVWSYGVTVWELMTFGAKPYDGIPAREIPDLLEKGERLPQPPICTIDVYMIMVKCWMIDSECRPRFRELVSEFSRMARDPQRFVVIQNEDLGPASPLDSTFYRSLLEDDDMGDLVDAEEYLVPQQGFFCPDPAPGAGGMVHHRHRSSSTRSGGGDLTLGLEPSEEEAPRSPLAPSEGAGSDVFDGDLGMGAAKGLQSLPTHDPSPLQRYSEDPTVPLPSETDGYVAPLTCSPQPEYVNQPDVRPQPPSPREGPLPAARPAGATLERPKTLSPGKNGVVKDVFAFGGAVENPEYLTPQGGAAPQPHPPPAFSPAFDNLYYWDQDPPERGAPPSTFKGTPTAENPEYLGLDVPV

`COc1cc(C=C(C#N)C(N)=O)cc(CSc2nc3ccccc3s2)c1O` [AG825, tyrphostin AG825] was tested, and the “autophosphorylation of ErbB2 at tyrosine-1248” value [1] was “inhibited autophosphorylation of ErbB2 at tyrosine-1248; also recorded: inhibits ErbB2 Y1248 phosphorylation”, the proliferation ([2]; 50 µM, conditioned medium (CM)) was “significantly inhibited proliferation” and the “time viable hESCs could be maintained” value ([2]; in presence of AG825) was over 5 days.

`CC(C)(C)c1cc(/C=C(\C#N)C(N)=S)cc(C(C)(C)C)c1O` [AG879] was tested, and the proliferation ([3]; at 20 µM) was “may have slowed proliferation”, the cell growth ([3]; at 50 µM) was “substantially inhibited cell growth” and the differentiation ([3]; mESCs grown in AG879) was “did not appear to differentiate”. For the same compound, the “concentration required to inhibit proliferation, mESCs relative to BG01v cells” value ([3]; mESCs vs BG01v cells grown in defined conditions) was about 10 x, the cell growth ([4]; at 5 µM, 5 days) was “substantially inhibited cell growth; also recorded: substantially slowed cell growth” and the cell death ([4]; at 20 µM) was “caused cell death”. For the same compound, the differentiation ([4]; cultures grown in AG879) was “inhibit proliferation without inducing differentiation”.

In the case of `COc1cc2ncnc(Nc3cccc(Cl)c3)c2cc1OC` [AG1478], the cell proliferation ([3]; 1-50 µM, 8 days, 10% FBS, 10% KSR, LIF) was “no apparent affect on cell proliferation; also recorded: did not overtly inhibit proliferation” and the cell proliferation ([4]; 50 nM-20 µM, 5 days, DC medium) was “neither DMSO nor AG1478 (50 nM-20 µM) had an apparent affect on cell proliferation; also recorded: did not appear to affect proliferation”.

For `C[C@@H](N)[C@H]1CC[C@H](C(=O)Nc2ccncc2)CC1` [Y27632], the “yield of cells generated by day 5” value [5] was “increased the yield of cells generated by day 5 in all conditions”, the “expansion of viable cells” value ([6]; 10 µM Y27632, seeded with 1x10^5 cells, day 5) was “approximately 13 fold” and the “initial aggregation in suspension culture” value ([6]; 10 µM, compared to medium without inhibitor) was “much larger aggregates were formed”. For the same compound, the “differentiation state by RT-PCR” value ([6]; BG02 suspension culture in the presence of Y27632) was “remained undifferentiated”, the “cell number when the aggregates were split again” value ([6]; Expt. A, p1, vs without inhibitor) was “almost twice as many cells were observed” and the “Cell counts: total” value [6, 8] was 1.6x10^6. The “Cell counts: viable” value [6, 8] was 1.2x10^6, the “Cell counts: viable, %” value [6, 8] was 74% and the “Cell counts: total” value [6, 9] was 7.8x10^6. The “Cell counts: viable” value [6, 9] was 7.1x10^6, the “Cell counts: viable, %” value [6, 9] was 91% and the “Cell counts: total” value [6, 10] was 4.6x10^6. For the same compound, the “Cell counts: viable” value [6, 10] was 4.2x10^6, the “Cell counts: viable, %” value [6, 10] was 91% and the “Cell counts: total” value [6, 11] was 1.9x10^6. The “Cell counts: viable” value [6, 11] was 1.4x10^6, the “Cell counts: viable, %” value [6, 11] was 73% and the “Cell counts: total” value [6, 12] was 1.9x10^7. The “Cell counts: viable” value [6, 12] was 1.8x10^7, the “Cell counts: viable, %” value [6, 12] was 96% and the “Cell counts: total” value [6, 13] was 1.5x10^7. The “Cell counts: viable” value [6, 13] was 1.4x10^7, the “Cell counts: viable, %” value [6, 13] was 92% and the “Cell counts: total” value [6, 14] was 8.7x10^5. For the same compound, the “Cell counts: viable” value [6, 14] was 6.6x10^5, the “Cell counts: viable, %” value [6, 14] was 76% and the “Cell counts: total” value [6, 15] was 8.6x10^6. For the same compound, the “Cell counts: viable” value [6, 15] was 7.8x10^6, the “Cell counts: viable, %” value [6, 15] was 91% and the “Cell counts: total” value [6, 16] was 1.9x10^6. For the same compound, the “Cell counts: viable” value [6, 16] was 1.6x10^6, the “Cell counts: viable, %” value [6, 16] was 84% and the “Cell counts: total” value [6, 17] was 1.4x10^7. The “Cell counts: viable” value [6, 17] was 1.2x10^7, the “Cell counts: viable, %” value [6, 17] was 90% and the “Cell counts: total” value [6, 18] was 2.6x10^5. The “Cell counts: viable” value [6, 18] was 2.3x10^5, the “Cell counts: viable, %” value [6, 18] was 91% and the “Cell counts: total” value [6, 19] was 2.7x10^6. The “Cell counts: viable” value [6, 19] was 2.5x10^6, the “Cell counts: viable, %” value [6, 19] was 91% and the “Cell counts: total” value [6, 20] was 4.6x10^5. The “Cell counts: viable” value [6, 20] was 3.5x10^5, the “Cell counts: viable, %” value [6, 20] was 75% and the “Cell counts: total” value [6, 21] was 5.7x10^6. The “Cell counts: viable” value [6, 21] was 5.3x10^6, the “Cell counts: viable, %” value [6, 21] was 93% and the “Cell counts: total” value [6, 22] was 6.8x10^4. For the same compound, the “Cell counts: viable” value [6, 22] was 5.4x10^4, the “Cell counts: viable, %” value [6, 22] was 79% and the “Cell counts: total” value [6, 23] was 1.4x10^6. For the same compound, the “Cell counts: viable” value [6, 23] was 1.3x10^6, the “Cell counts: viable, %” value [6, 23] was 92% and the cell survival [7] was “supported cell survival”.
